In patent US5475029A, “Farnesyl compounds as cholesterol lowering agents” (The Board of Trustees of the Leland Stanford Junior …, priority 1993, dated 1995):

Tests used:
HMGal [1] = test: HMGal activity (in vitro β-galactosidase specific activity) in CHO-HMGal cells; format: cell-based; conditions: for reduction in HMGal activity at concentrations below the levels toxic to the cells: five isoprenoid compounds tested
Protocol: (§1) Cell Culture--All cells were grown as monolayers at 37° C. in an atmosphere of 5% CO2. CHO-HMGal cells were grown in minimal essential medium (MEM) supplemented with 0.25 mg/ml active geneticin and either 5% fetal calf serum (FCS) or 5% lipid-poor fetal calf serum (LPS).
Stock Solutions--Stock solutions of farnesyl acetate, ethyl farnesyl ether, and the mixture of 25-hydroxycholesterol with cholesterol were all made in 100% ethanol at 100 times the final concentration. In all experiments in which these compounds were used, there is a final concentration of 1% ethanol in the medium. For control, cells grown with "no additives" or "mevalonate" 100% ethanol was added to the medium to bring the final concentration of ethanol to 1%. The mevalonate stock solution was prepared at a concentration of 2M in 20 mM potassium phosphate buffer (pH 4.5).
(§2) β-galactosidase Specific Activity--In vitro β-galactosidase activity was measured using the substrate, o-nitrophenyl-β-D-galactopyranoside. Specific activities were calculated using protein concentration values.
Farnesyl acetate and ethyl farnesyl ether stimulate a reduction in HMGal activity--In an attempt to identify tile non-sterol metabolite(s) that triggers the down regulation of HMG-CoA reductase, five commercially available isoprenoid compounds were tested for their effects on HMGal activity in CHO-HMGal cells. Each of tile compounds tested closely resembled one of tile naturally occurring isoprenoid pyrophosphates, except that the pyrophosphate group had been replaced by either a hydroxyl or an […] group. The compounds tested included: 3-methyl-2-buten-1-ol, the alcohol of the five carbon isoprenoid-dimethylallyl pyrophosphate (a naturally occurring isomer of isopentenyl pyrophosphate); geraniol and geranyl acetate, the alcohol and the […] of the ten carbon isoprenoid-geranyl pyrophosphate; and farnesol and farnesyl acetate, the alcohol and the […] of the fifteen carbon isoprenoid-farnesyl pyrophosphate.
(§3) To confirm that the reduction in HMGal activity was the result of a regulatory function specifically targeting the membrane domain of HMGal, the effects of farnesyl acetate on β-galactosidase activity were measured in vitro for both CHO-HMGal cells and CHO-Gal cells. The CHO-Gal cells had been stably transfected with a construct identical to the HMGal construct (using the same vector, promoter, and 5' and 3' flanking regions) except that the construct in the CHO-Gal cells codes for a soluble β-galactosidase protein instead of the HMGal fusion protein with the membrane domain of HMG-CoA reductase. In this experiment, the CHO-Gal cells served to control for any artifacts farnesyl acetate might cause in the β-galactosidase assay or any nonspecific effects farnesyl acetate might have on the rates of protein synthesis or degradation.

β-galactosidase = β-galactosidase activity in CHO-Gal control cells; format: cell-based
Protocol: as §2, §3

total cellular protein = test: Total cellular protein degradation; format: cell-based; conditions: 10 μg/ml
Protocol: (§4) Measurement of HMGal and HMG-CoA Reductase Degradation Rates Cells grown in 60×15 mm dishes were washed once with ice-cold PBS and starved for 1 hour in 1 ml of methionine-free MEM supplemented with 5% LPS, 250 μg/ml of active geneticin, 10 μM compactin, and 0.1 mM mevalonate. These cells were radio-labeled for 2 hours in 300 μl of the methionine-free starvation medium containing 100 μCi of Tran^35 S-label (>1,000 Ci/mmol). Cells were incubated in an MEM-based chase medium containing 2 mM methionine, 5% LPS, 250 μg/ml of active geneticin, 10 μM compactin, and 0.1 mM mevalonate. During the chase period, some plates also had either 20 mM mevalonate, 10 μg/ml farnesyl acetate or 10 μg/ml ethyl farnesyl ether added to them as indicated in the figure legend. Following the chase, cells were washed, lysed and the HMGal and HMG-CoA reductase proteins were immunoprecipitated, subjected to SDS-PAGE and quantified.
(§5) In order to test whether the farnesyl compounds impact degradation, the rates of degradation for HMGal, HMG-CoA reductase, and total cellular protein were measured in the presence and absence of 10 μg/ml farnesyl acetate and ethyl farnesyl ether.

HMG-CoA reductase [2] = test: HMG-CoA reductase degradation rate (pulse-chase); format: cell-based; conditions: 10 μg/ml during chase; untreated 9.3 hours
Protocol: as §4, §5

CHO-HMGal cells = test: Cell growth of CHO-HMGal cells in farnesyl compounds; format: cell-based; conditions: 20 μg/ml
Protocol: as §1
Cell growth in farnesyl acetate and ethyl farnesyl ether CHO-HMGal cells were grown in a range of farnesyl acetate and ethyl farnesyl ether concentrations, in order to determine the optimal concentration of the farnesyl compounds to use in subsequent experiments.

cholesterol biosynthesis = test: [3H]acetate incorporation into cholesterol in CHO-HMGal cells; format: cell-based
Protocol: (§6) Thin Layer Chromatography--TLC was performed using Analtech 250 μm silica gel G plates with a hexanes/diethyl ether (1:1) solvent system. Lipid standards were visualized by iodine staining. Bands were scraped from the plate and their radioactivity was measured.
(§7) Quantification of Radioactivity--Samples were suspended in 4 ml of scintillation fluid (Cytoscint from ICN). The radioactivity of the samples was measured using a Beckman LS-7500 scintillation counter.
Subsequently, the cells were labeled for 1,2, and 4 hours with [^3 H]acetate and harvested. The non-saponifiable lipid fraction from each cell type was extracted and separated by TLC. The radioactivity that co-migrated with cholesterol was measured and normalized for the amount of cellular protein.
Farnesyl acetate and ethyl farnesyl ether were only present during the labeling period so that any reduction in incorporation into cholesterol would be the result of inhibition and not a down regulation in HMG-CoA reductase.

[3] = tested on: cholesterol biosynthetic pathway; test: TLC distribution of [3H]acetate-derived non-saponifiable lipids (site of metabolic block); format: cell-based; parameters: radioactivity in the cell-derived fraction co-migrating with lanosterol / radioactivity in the cell-derived fraction co-migrating with squalene / radioactivity in the cell-derived fraction co-migrating with cholesterol / remaining radioactivity in the cell-derived fraction scattered throughout the rest of the TLC lane: concentration or dose not given beside the values
Protocol: Lipid Saponification and Extraction Procedure Saponification and extraction of lipids from cell and media samples was performed as previously described in Bradfute, et al. (1992) J.B.C. 267:18308-18314.
as §6, §7
To determine tile site of tile metabolic block caused by farnesyl acetate and ethyl farnesyl ether, the non-saponifiable lipids from cells grown in the presence of the farnesyl compounds were examined for the accumulation of intermediates in the cholesterol biosynthetic pathway. The cells were only labeled for 1 hour and only treated with the farnesyl compounds during the labeling period; so that any intermediates which accumulated would be as a result of the inhibitory effects of the farnesol compounds and not subsequent regulatory effects on HMG-CoA reductase. CHO-HMGal cells were incubated with [^3 H]acetate and either farnesyl acetate, ethyl farnesyl ether, or no additive. The non-saponifiable lipids were isolated from both the cell, and the medium and separated by TLC.

HMGal [4] = test: HMGal degradation rate (pulse-chase); format: cell-based; conditions: 10 μg/ml during chase; untreated 6.4 hours
Protocol: as §4, §5

HMGal [5] = test: HMGal synthesis rate ([35S]methionine incorporation); format: cell-based; conditions: 20 mM
Protocol: (§8) Measurement of HMGal and HMG-CoA Reductase Synthesis Rates Cells plated into 60×15 mm dishes were grown in 5% LPS MEM with 0.25 mg/ml active geneticin for 24 hours. These cells were washed with PBS and grown for 24 hours in 5% LPS MEM supplemented with 0.25 mg/ml active geneticin, 10 μM compactin and 0.1 mM mevalonate. After 24 hours, the medium was removed, the cells were washed with PBS and the medium was replaced with methionine-free MEM supplemented with 5% LPS, 250 μg/ml of active geneticin, 10 μM compactin, and 0.1 mM mevalonate. In addition, 20 mM mevalonate or 10 μg/ml farnesyl acetate was included in those plates previously treated with these compounds. […] Cells were washed, lysed and the HMGal and HMG-CoA reductase proteins were immunoprecipitated, subjected to SDS-PAGE and quantified. […]
(§9) Farnesyl compounds reduce translation and stimulate degradation of HMG-CoA reductase and HMGal A reduction in HMGal specific activity triggered by the farnesyl compounds could have been the result of a decrease in HMGal synthesis, an increase in HMGal degradation, or a combination of changes in both the synthesis and degradation rates. In order to test whether the farnesyl compounds impact synthesis, the rates of HMGal, HMG-CoA reductase, and total cellular protein synthesis were measured by [^35 S]methionine incorporation in the presence and absence of 10 μg/ml farnesyl acetate.

HMG-CoA reductase [6] = test: HMG-CoA reductase synthesis rate ([35S]methionine incorporation); format: cell-based; conditions: 20 mM
Protocol: as §8, §9

squalene synthase = test: Squalene synthase assay (cell lysate); format: biochemical; conditions: 1 nM to 50 μM
Protocol: Squalene Synthase Assay--The cell lysate was prepared immediately prior to running the assay. Cells were washed three times with PBS, once with a 0.1M potassium phosphate buffer (pH 7.4) containing 5 mM MgCl2 and 5 mM CHAPS, and once with a 0.01M potassium phosphate buffer (pH 7.4) containing 0.5 mM MgCl2 and 0.5 mM CHAPS. Cells were scraped with a rubber policeman in approximately 0.5 ml of the final wash buffer and dounce homogenized with 20 strokes, while on ice. An aliquot of cell lysate was examined with a light microscope to ensure that essentially all cells in the sample were lysed. An additional aliquot of cell lysate was saved for protein determination. […] The squalene was isolated by TLC and the radioactivity of the squalene bands was measured as previously described. […]
Since both farnesyl compounds have a structural similarity to farnesyl pyrophosphate, the substrate for squalene synthase, and some of the farnesyl compounds that have been tested function as a competitive inhibitor of squalene synthase, the effects of farnesyl acetate on in vitro squalene synthase activity was measured. As a positive control, squalene synthase activity was also measured in tile presence of zaragozic acid A, a potent competitive inhibitor of the enzyme. […]

[7] = 1 hour labeling with [3H]acetate, compound only during labeling

## CC(C)=CCO [3-methyl-2-buten-1-ol, reference compound]
HMGal [1]
  reduction in HMGal activity at concentrations below the levels toxic to the cells: only farnesyl acetate stimulated a reduction in HMGal activity

## CCOCC=C(C)CCC=C(C)CCC=C(C)C [ethyl farnesyl ether]
β-galactosidase; 10 μg/ml
  change of β-galactosidase activity of CHO-Gal cells: insignificant
β-galactosidase; 20 μg/ml
  change of β-galactosidase activity of CHO-Gal cells: essentially unchanged
Total cellular protein
  effect on the degradation of total cellular protein: Neither farnesyl compound had a significant effect
HMG-CoA reductase [2]
  half-life of HMG-CoA reductase: 2.9 h
  reduction of the half-life of HMG-CoA reductase: 70%
CHO-HMGal cells
  reduction in cell growth: approximately 60%
Cholesterol biosynthesis; 24 hours pretreatment, then labeled 1, 2 and 4 hours, CHO-HMGal cells
  reduction in [3H]acetate incorporation into cholesterol: 95%
Cholesterol biosynthesis; compound present only during the labeling period, no pretreatment
  reduction in [3H]acetate incorporation into cholesterol: 98%
[3]; [7]
  radioactivity in the cell-derived fraction co-migrating with cholesterol: 1%
  radioactivity in the cell-derived fraction co-migrating with lanosterol: 48%
  radioactivity in the cell-derived fraction co-migrating with squalene: 45%
  remaining radioactivity in the cell-derived fraction scattered throughout the rest of the TLC lane: 6%
[3]; untreated 6%
  total non-saponifiable radioactivity found in the medium: 14%
[3]; untreated 94%
  total non-saponifiable radioactivity found in the cells: 86%
[3]; versus untreated sample
  increase in media-derived material co-migrating with farnesol: 2 fold
HMGal [1]; 10 μg/ml, 24 hour treatment
  reduction of HMGal activity: 40%
HMGal [1]; 20 μg/ml
  reduction of HMGal activity: 50%
HMGal [4]
  half-life of HMGal: 3.0 h
  reduction of the half-life of HMGal: 50%

## CC(C)=CCCC(C)=CCCC(C)=CCO [farnesol, reference compound]
HMGal [1]
  reduction in HMGal activity at concentrations below the levels toxic to the cells: only farnesyl acetate stimulated a reduction in HMGal activity

## CC(C)=CCC/C(C)=C/CO [geraniol, reference compound]
HMGal [1]
  reduction in HMGal activity at concentrations below the levels toxic to the cells: only farnesyl acetate stimulated a reduction in HMGal activity

## CC(=O)OC/C=C(\C)CCC=C(C)C [geranyl acetate, reference compound]
HMGal [1]
  reduction in HMGal activity at concentrations below the levels toxic to the cells: only farnesyl acetate stimulated a reduction in HMGal activity

## CC(O)(CCO)CC(=O)O (centres unmarked) [mevalonate, reference compound]
HMGal [5]
  reduction in the rate of HMGal synthesis: 70%
HMG-CoA reductase [6]
  reduction in HMG-CoA reductase synthesis: 70%

## C=C(CC[C@]12O[C@H](C(=O)O)[C@@](O)(C(=O)O)[C@](C(=O)O)(O1)[C@H](OC(=O)/C=C/[C@@H](C)C[C@@H](C)CC)[C@H]2O)[C@@H](OC(C)=O)[C@H](C)Cc1ccccc1 [zaragozic acid A, reference compound]
Squalene synthase
  inhibition of in vitro squalene synthase activity: more than 90%
